Test results as given in patent US8192962B2, “Processes for detecting toxic substances” (Daikin Industries, Ltd., priority 2001, dated 2012).

Test system: Unknown protein yeast genes
Assay: DNA chip mRNA expression in yeast, unknown protein yeast genes (Table 1)
Type: cell-based, Saccharomyces cerevisiae S288C
In short: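 S. cerevisiae S288C grown at 25° C in YPD were exposed in log phase for two hours to one toxic chemical at a growth-inhibiting, non-lethal concentration; untreated cells served as control. Poly(A) mRNA was reverse-transcribed with Cy3/Cy5-dUTP and hybridized to a whole-genome yeast DNA chip at 65° C for over 12 hours; values are fluorescence ratios versus untreated.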

Measured: The level of expressed mRNA in the presence of chemical substance/The level of expressed mRNA in the absence of chemical substance

O=[N+]([O-])c1cc[n+]([O-])c2ccccc12 [(5), 4-nitroquinolin-N-oxide]
1.4: yeast gene YDL072C, incubated two hours with chemical substance | yeast gene YDR545W, incubated two hours with chemical substance | yeast gene YFL006W, incubated two hours with chemical substance | yeast gene YGR130C, incubated two hours with chemical substance | yeast gene YIL087C, incubated two hours with chemical substance | yeast gene YJR008W, incubated two hours with chemical substance
1.7: yeast gene YJL082W, incubated two hours with chemical substance
1.0: yeast gene YDL204W, incubated two hours with chemical substance | yeast gene YDL222C, incubated two hours with chemical substance | yeast gene YDR511W, incubated two hours with chemical substance | yeast gene YJL171C, incubated two hours with chemical substance | yeast gene YJR054W, incubated two hours with chemical substance
0.9: yeast gene YEL001C, incubated two hours with chemical substance | yeast gene YER175C, incubated two hours with chemical substance | yeast gene YFL032W, incubated two hours with chemical substance | yeast gene YGL037C, incubated two hours with chemical substance | yeast gene YGL121C | yeast gene YGR110W | yeast gene YGR221C, incubated two hours with chemical substance
1.1: yeast gene YFL024C | yeast gene YJL161W, incubated two hours with chemical substance
1.3: yeast gene YAR023C | yeast gene YBL048W | yeast gene YDL086W | yeast gene YDL129W | yeast gene YDR359C | yeast gene YDR533C | yeast gene YER121W | yeast gene YER189W | yeast gene YFL010C, incubated two hours with chemical substance | yeast gene YGL047W, incubated two hours with chemical substance | yeast gene YGR038W | yeast gene YGR142W | yeast gene YIL023C, incubated two hours with chemical substance | yeast gene YIL057C | yeast gene YIR041W | yeast gene YJL100W | yeast gene YJL151C, incubated two hours with chemical substance
0.7: yeast gene YGL199C, incubated two hours with chemical substance
1.2: yeast gene YBL107C | yeast gene YDR330W, incubated two hours with chemical substance | yeast gene YGR101W, incubated two hours with chemical substance | yeast gene YGR154C, incubated two hours with chemical substance | yeast gene YHR199C, incubated two hours with chemical substance
1.5: yeast gene YER004W, incubated two hours with chemical substance | yeast gene YER035W, incubated two hours with chemical substance | yeast gene YHR138C, incubated two hours with chemical substance | yeast gene YJL057C, incubated two hours with chemical substance
1.6: yeast gene YDR411C, incubated two hours with chemical substance | yeast gene YER106W, incubated two hours with chemical substance | yeast gene YJL152W, incubated two hours with chemical substance
0.5: yeast gene YIL041W, incubated two hours with chemical substance
2.0: yeast gene YGL053W, incubated two hours with chemical substance
0.8: yeast gene YAL053W, incubated two hours with chemical substance | yeast gene YER079W, incubated two hours with chemical substance | yeast gene YER158C, incubated two hours with chemical substance | yeast gene YER163C, incubated two hours with chemical substance | yeast gene YJL066C, incubated two hours with chemical substance
